Data reported in patent US8536351B2, “2-aryl-5-heterocyclyl-cyclohexane-1,3,dione compounds and their use as herbicides” (Syngenta Crop Protection LLC, priority 2007, dated 2013).

Legend:
Assay type in all cases: in vivo
[1] = system: Alopecurus myosuroides (ALOMY); test: Post-emergence activity, glasshouse pot test (100=total damage to plant; 0=no damage to plant); conditions: 336 h, evaluated 14 or 15 days after spraying; for pest or weed control at 500 g/ha: rate 500 g/ha
Protocol: (§1) Monocotyledonous and dicotyledonous test plants were sown in standard soil in pots. After cultivation for one day (pre-emergence) or after 10 days cultivation (post-emergence) under controlled conditions in a glasshouse, the plants were sprayed with an aqueous spray solution derived from the formulation of the technical active ingredient in 0.6 ml acetone and 45 ml formulation solution containing 10.6% Emulsogen EL (Registry number 61791-12-6), 42.2% N-methyl pyrrolidone, 42.2% dipropylene glycol monomethyl ether (Registry number 34590-94-8) and 0.2% X-77 (Registry number 11097-66-8). The test plants were then grown in a greenhouse under optimum conditions until, 14 or 15 days later for post-emergence and 19, 20 or 21 days for pre-emergence, the test was evaluated (100=total damage to plant; 0=no damage to plant). Alopecurus myosuroides (ALOMY), Avena fatua (AVEFA), Lolium perenne (LOLPE), Setaria faberi (SETFA), Digitaria sanguinalis (DIGSA), Echinochloa crus-galli (ECHCG) Post-Emergence Activity

[2] = system: Lolium perenne (LOLPE); test: as above; conditions: 336 h, evaluated 14 or 15 days after spraying; for pest or weed control at 500 g/ha: rate 500 g/ha
Protocol: as §1

[3] = system: Digitaria sanguinalis (DIGSA); test: as above; conditions: evaluated 14 or 15 days after spraying; for pest or weed control at 500 g/ha: rate 500 g/ha
Protocol: as §1

[4] = system: Avena fatua (AVEFA); test: as above; conditions: 336 h, evaluated 14 or 15 days after spraying; for pest or weed control at 500 g/ha: rate 500 g/ha
Protocol: as §1

[5] = system: Setaria faberi (SETFA); test: as above; conditions: evaluated 14 or 15 days after spraying; for pest or weed control at 500 g/ha: rate 500 g/ha
Protocol: as §1

[6] = system: Echinochloa crus-galli (ECHCG); test: as above; conditions: evaluated 14 or 15 days after spraying; for pest or weed control at 500 g/ha: rate 500 g/ha
Protocol: as §1

[7] = system: Alopecurus myosuroides (ALOMY); test: Pre-emergence activity, glasshouse pot test (100=total damage to plant; 0=no damage to plant); conditions: rate 500 g/ha, evaluated 19, 20 or 21 days after spraying
Protocol: as §1, with “Pre-Emergence” for “Post-Emergence”

[8] = system: Digitaria sanguinalis (DIGSA); test: as above; conditions: rate 500 g/ha, evaluated 19, 20 or 21 days after spraying
Protocol: as §1, with “Pre-Emergence” for “Post-Emergence”

[9] = system: Avena fatua (AVEFA); test: as above; conditions: rate 500 g/ha, evaluated 19, 20 or 21 days after spraying
Protocol: as §1, with “Pre-Emergence” for “Post-Emergence”

[10] = system: Setaria faberi (SETFA); test: as above; conditions: rate 500 g/ha, evaluated 19, 20 or 21 days after spraying
Protocol: as §1, with “Pre-Emergence” for “Post-Emergence”

[11] = system: Echinochloa crus-galli (ECHCG); test: as above; conditions: rate 500 g/ha, evaluated 19, 20 or 21 days after spraying
Protocol: as §1, with “Pre-Emergence” for “Post-Emergence”

[12] = system: Lolium perenne (LOLPE); test: as above; conditions: rate 500 g/ha, evaluated 19, 20 or 21 days after spraying
Protocol: as §1, with “Pre-Emergence” for “Post-Emergence”

Compound	pest or weed control at 500 g/ha [1]	pest or weed control at 500 g/ha [2]	pest or weed control at 500 g/ha [3]	pest or weed control at 500 g/ha [4]	pest or weed control at 500 g/ha [5]	pest or weed control at 500 g/ha [6]	pest or weed control at 500 g/ha [7]	pest or weed control at 500 g/ha [8]	pest or weed control at 500 g/ha [9]	pest or weed control at 500 g/ha [10]	pest or weed control at 500 g/ha [11]	pest or weed control at 125 g/ha ([1]; rate 125 g/ha)	pest or weed control at 125 g/ha ([2]; rate 125 g/ha)	pest or weed control at 125 g/ha ([3]; rate 125 g/ha)	pest or weed control at 125 g/ha ([4]; rate 125 g/ha)	pest or weed control at 125 g/ha ([5]; rate 125 g/ha)	pest or weed control at 125 g/ha ([6]; rate 125 g/ha)	pest or weed control at 500 g/ha [12]
Cc1cc(C)c(C2=C(O)CC(C3CCOC3)CC2=O)c(C)c1 (stereo not drawn) [Compound T10]	80%	80%	90%	60%	80%	90%	90%	80%	50%	70%	80%							
CCc1cc(C)cc(CC)c1C1=C(O)CC(C2CCC[S+]([O-])C2)CC1=O (stereo not drawn) [Compound T23]							100%	100%	100%	70%	50%	90%	90%	70%	90%	50%	80%	100%
CCc1ccc(-c2ccc(Cl)cc2)cc1C1=C(O)CC(C2CCOC2)CC1=O (stereo not drawn) [Compound T6]	100%	100%	100%	90%	100%	100%	90%	100%	20%	100%	100%							100%
CCc1cc(C)cc(C)c1C1=C(O)CC(C2CCCSC2)CC1=O (stereo not drawn) [Compound T16]	100%	90%	100%	80%	100%	90%	0%	100%	100%	100%	100%							100%
CCc1cc(C)cc(C)c1C1=C(O)CC(C2CCOCC2)CC1=O (stereo not drawn) [Compound T12]	90%	90%	100%	90%	100%	100%	90%	100%	90%	100%	100%							100%
CCc1cc(C)cc(CC)c1C1=C(O)CC(C2CCSCC2)CC1=O (stereo not drawn) [Compound T18]	90%	70%	100%	100%	100%	70%	100%	100%	100%	100%	100%							100%
Cc1ccc(-c2ccc(Cl)cc2)cc1C1=C(O)CC(C2CCOC2)CC1=O (stereo not drawn) [Compound T7]	90%	80%	100%	90%	100%	100%	70%	100%	30%	100%	100%							100%
CCc1cc(C)cc(CC)c1C1=C(O)CC(C2CC[S+]([O-])CC2)CC1=O (stereo not drawn) [Compound T22]	90%	80%	100%	90%	100%	80%	90%		90%		70%							90%
